Results taken from PMC8501799, “Constitutive signal bias mediated by the human GHRHR splice variant 1” (Proceedings of the National Academy of Sciences of the …, 2021).

Tests used:
Assay type in all cases: cell-based, human
22Rv1 cells = assay: ERK1/2 phosphorylation in prostate cancer cells; settings: 1 μM GHRH; among three prostate cancer cell lines
Experimental: Spodoptera frugiperda (Sf9) insect cells (Expression Systems) were grown in ESF 921 serum-free medium (Expression Systems) at 27 °C and 120 rpm. HEK293T cells were purchased from American Type Culture Collection (ATCC), cultured in Dulbecco’s modified Eagle’s medium (DMEM; Life Technologies), supplemented with 10% fetal bovine serum (FBS; Gibco), and maintained in a humidified chamber with 5% CO2 at 37 °C. The PC3 prostate cancer cell line (ATCC) was cultured in F12 medium supplemented with 10% FBS and maintained in a humidified chamber with 5% CO2 at 37 °C. 22Rv1 and LNCaP human prostate cancer cells (ATCC) were cultured in Roswell Park Memorial Institute (RPMI)-1640 medium supplemented with 10% FBS and maintained in a humidified atmosphere containing 5% CO2 at 37 °C.
ERK1/2 phosphorylation was detected with the AlphaScreen SureFire ERK1/2 assay kit (PerkinElmer). […] The plate was incubated in the dark at 37 °C for 1 h, after which the fluorescence signal was measured by an Envision plate reader using standard AlphaScreen settings.
The cells were then lysed with radioimmunoprecipitation assay lysis buffer (Sigma-Aldrich) on ice for 5 min and centrifuged at 12,000 rpm for 15 min. Protein concentration of the supernatant was determined by BCA protein assay kit (Beyotime). […]

SV1 F62A = assay: cAMP accumulation; settings: Table S4, mean ± SEM
Experimental: (§1) GHRH-stimulated cAMP accumulation was measured by a LANCE Ultra cAMP kit (PerkinElmer). Briefly, HEK293T cells (24 h after transfection with SV1 or GHRHR) or prostate cancer cells were digested by 0.2% (wt/vol) EDTA and washed once with Dulbecco’s phosphate-buffered saline (PBS). Cells were then resuspended with stimulation buffer (Hanks’ balanced salt solution [HBSS] supplemented with 5 mM HEPES, 0.5 mM IBMX, and 0.1% [wt/vol] bovine serum albumin [BSA], pH 7.4) to a density of 0.6 million cells per milliliter and added to 384-well white plates (3,000 cells per well). […] The reaction was stopped by adding 5 μL Eu-cAMP tracer and 5 μL ULight-anti-cAMP. After 1 h RT incubation, TR-FRET signals (excitation: 320 nm, emission: 615 and 665 nm) were measured by an Envision plate reader (PerkinElmer). cAMP concentrations were interpolated by a standard curve.
(§2) All functional study data were analyzed using Prism 7 (GraphPad) and presented as means ± SEM from at least three independent experiments. Concentration-response curves were evaluated with a three-parameter logistic equation. The significance was determined with either two-tailed Student’s t test or one-way ANOVA, and P < 0.05 is considered statistically significant.
(§3) Table S4. Effects of residue mutation in the ligand-binding pocket of SV1 on GHRH-induced cAMP […]
(§4) Mutant pEC50 Emax Cell surface expression ΔLog (τ/KA)
(§5) (% WT GHRHR) (% WT GHRHR) cAMP accumulation data were analyzed using a three-parameter logistic equation to determine pEC50 and Emax values. pEC50 is the negative logarithm of the molar concentration of agonist that induced half the maximal response. Emax for mutants is expressed as a percentage of the WT GHRHR. Data were analyzed by nonlinear regression using the operational model equation to determine t he logR values (logτ/KA, i.e., logarithm of the transduction ratio). τ is the effi cacy value of the agonist and was corrected by cell surface expression of the receptor. KA is dissociation constant. Changes in transduction ratio (ΔlogR) were calculated to determine the relative effectiveness of the mutants. All values are means ± S.E.M. of four independent experiments (n = 4) conducted in quadruplicate. Statistical analysis was carried out by comparing the control responses in the WT-SV1. *, P < 0.05, **, P < 0.01 and ***, P < 0.001, determined by one-way

SV1 L290A = assay: cAMP accumulation; settings: Table S4, mean ± SEM
Experimental: as §1, §2, §3, §4, §5

[1] = tested on: N terminus truncated GHRHRs; assay: β-arrestin 1/2 recruitment (BRET), truncated receptors; settings: HEK293T
Experimental: (§6) HEK293T cells were seeded at a density of 30,000 cells per well into 96-well culture plates pretreated with poly-D-lysine hydrobromide. After incubation for 24 h to reach 70% to 80% confluence, the cells were transiently transfected with HA-Flag-GHRHR-Rluc8 or HA-Flag-SV1-Rluc8 and β-arrestin 1/2-Venus at a 1:9 mass ratio using lipofectamine 3000 reagent (Invitrogen) and cultured for another 24 h. Thereafter, cells were washed once and incubated for 30 min at 37 °C with HBSS buffer (pH 7.4) supplemented with 0.1% BSA and 10 mM HEPES. Five micromolars of coelenterazine h (YEASEN Biotechnology) was then added and incubated for 5 min in the dark. The bioluminescence resonance energy transfer (BRET) signals were detected with an Envision plate reader by calculating the ratio of emission at 535 nm over emission at 470 nm.

[2] = tested on: GHRHR ECD mutants (L34, L62, F82, F85 to alanine); assay: β-arrestin 1/2 recruitment (BRET), GHRHR ECD alanine mutants; settings: HEK293T
Experimental: as §6

[3] = HEK293T, LANCE Ultra cAMP, 30 min RT, 0.5 mM IBMX, n = 4 in quadruplicate
[4] = HEK293T, n = 4 in quadruplicate
[5] = operational model, τ corrected by cell surface expression, n = 4

CC[C@H](C)[C@H](NC(=O)[C@H](C)NC(=O)[C@H](CC(=O)O)NC(=O)[C@H](C)NC(=O)[C@@H](N)Cc1ccc(O)cc1)C(=O)N[C@@H](Cc1ccccc1)C(=O)N[C@H](C(=O)N[C@@H](CC(N)=O)C(=O)N[C@@H](CO)C(=O)N[C@@H](Cc1ccc(O)cc1)C(=O)N[C@@H](CCCNC(=N)N)C(=O)N[C@@H](CCCCN)C(=O)N[C@H](C(=O)N[C@@H](CC(C)C)C(=O)NCC(=O)N[C@@H](CCC(N)=O)C(=O)N[C@@H](CC(C)C)C(=O)N[C@@H](CO)C(=O)N[C@@H](C)C(=O)N[C@@H](CCCNC(=N)N)C(=O)N[C@@H](CCCCN)C(=O)N[C@@H](CC(C)C)C(=O)N[C@@H](CC(C)C)C(=O)N[C@@H](CCC(N)=O)C(=O)N[C@@H](CC(=O)O)C(=O)N[C@H](C(=O)N[C@@H](CCSC)C(=O)N[C@@H](CO)C(=O)N[C@@H](CCCNC(=N)N)C(=O)N[C@@H](CCC(N)=O)C(=O)N[C@@H](CCC(N)=O)C(=O)NCC(=O)N[C@@H](CCC(=O)O)C(=O)N[C@@H](CO)C(=O)N[C@@H](CC(N)=O)C(=O)N[C@@H](CCC(N)=O)C(=O)N[C@@H](CCC(=O)O)C(=O)N[C@@H](CCCNC(=N)N)C(=O)NCC(=O)N[C@@H](C)C(=O)N[C@@H](CCCNC(=N)N)C(=O)N[C@@H](C)C(=O)N[C@@H](CCCNC(=N)N)C(=O)N[C@@H](CC(C)C)C(N)=O)[C@@H](C)CC)C(C)C)[C@@H](C)O [GHRH, growth hormone–releasing hormone]
pERK1/2 response (22Rv1 cells): markedly stronger and longer pERK1/2 response
pEC50 of cAMP accumulation (SV1 F62A; [3]): 5.28 ± 0.08
Emax of cAMP accumulation (SV1 F62A; [4]): 105.64 ± 4.54 % WT GHRHR
ΔLog (τ/KA) (SV1 F62A; [5]): -4.41 ± 0.14
pEC50 of cAMP accumulation (SV1 L290A; [3]): 5.58 ± 0.08
Emax of cAMP accumulation (SV1 L290A; [4]): 109.60 ± 3.90 % WT GHRHR
ΔLog (τ/KA) (SV1 L290A; [5]): -4.56 ± 0.09
β-arrestin 1/2 recruitments ([1]; deletion made before the first 82 residues, 250 μM GHRH): not affected
β-arrestin 1/2 recruitments ([1]; truncation of the first 89 residues or the entire ECD): enhanced
β-arrestin 1/2 recruitments ([2]; F82A and F85A mutants of GHRHR): enhanced β-arrestin 1/2 recruitments
β-arrestin 1/2 recruitments ([2]; any or all of four ECD residues (L34, L62, F82, F85) to alanine): enhanced β-arrestin 1/2 recruitments
